This note sets out measurements from patent US20040242572A1 (Boehringer Ingelheim International GmbH, priority 2002, published 2004).

Tested on in the first data set: not given
Assay: not given
Details: not given
In the case of `O=c1c2ccc(-c3ccc(Cl)cc3)cc2ncn1CCc1ccc(CN2CCC(O)(c3ccccc3)CC2)cc1`, the melting point was 204 to 205 °C.
The compound `O=c1c2ccc(-c3ccc(Cl)cc3)cc2nnn1CCc1ccc(CN2CCC(O)(c3ccccc3)CC2)cc1` returned a melting point of 265 to 266 °C.
`O=c1c2ccc(-c3ccc(Cl)cc3)cc2ncn1CCc1ccc(CN2CCCC2)cc1` [Example 1.1, 7-(4-chloro-phenyl)-3-[2-(4-pyrrolidin-1-ylmethyl-phenyl)-ethyl]-3H-quinazolin-4-one] yielded a melting point of 178 to 179 °C.
On the same count and under the same terms, with `Cc1ccc(-c2ccc3c(=O)n(CCc4ccc(CN5CCCC5)cc4)cnc3c2)cc1` [Example 1.2, 3-[2-(4-Pyrrolidin-1-ylmethyl-phenyl)-ethyl]-7-p-tolyl-3H-quinazolin-4-one] the figure was 157 to 158 °C; with `O=c1c2ccc(-c3ccc(C(F)(F)F)cc3)cc2ncn1CCc1ccc(CN2CCCC2)cc1` [Example 1.3, 3-[2-(4-pyrrolidin-1-ylmethyl-phenyl)-ethyl]-7-(4-trifluormethyl-phenyl)-3H-quinazolin-4-one], 179 to 181 °C.
Turning to `COc1ccc(-c2ccc3c(=O)n(CCc4ccc(CN5CCCC5)cc4)cnc3c2)cc1` [Example 1.4, 7-(4-Methoxy-phenyl)-3-[2-(4-pyrrolidin-1-ylmethyl-phenyl)-ethyl]-3H-quinazolin-4-one], the melting point lay within 143 to 144 °C.
On the same count and under the same terms, the result for `O=c1c2ccc(-c3ccc(Cl)c(Cl)c3)cc2ncn1CCc1ccc(CN2CCCC2)cc1` [Example 1.5, 7-(3,4-dichloro-phenyl)-3-[2-(4-pyrrolidin-1-ylmethyl-phenyl)-ethyl]-3H-quinazolin-4-one] reads 148 to 149 °C; that for `O=c1c2ccc(-c3ccc(F)cc3)cc2ncn1CCc1ccc(CN2CCCC2)cc1` [Example 1.7, 7-(4-fluoro-phenyl)-3-[2-(4-pyrrolidin-1-ylmethyl-phenyl)-ethyl]-3H-quinazolin-4-one], 160 to 161 °C; that for `CCc1ccc(-c2ccc3c(=O)n(CCc4ccc(CN5CCCC5)cc4)cnc3c2)cc1` [Example 1.8, 7-(4-Ethyl-phenyl)-3-[2-(4-pyrrolidin-1-ylmethyl-phenyl)-ethyl]-3H-quinazolin-4-one], 165 to 166 °C.
Same read-out and setting: with `Cc1nc2cc(-c3ccc(Cl)cc3)ccc2c(=O)n1CCc1ccc(CN2CCCC2)cc1` [Example 1.11, 7-(4-chloro-phenyl)-2-methyl-3-[2-(4-pyrrolidin-1-ylmethyl-phenyl)-ethyl]-3H-quinazolin-4-one] the figure was 160 to 163 °C.
`O=c1[nH]c2cc(-c3ccc(Cl)cc3)ccc2c(=O)n1CCc1ccc(CN2CCCC2)cc1` [Example 1.12, 7-(4-chloro-phenyl)-3-[2-(4-pyrrolidin-1-ylmethyl-phenyl)-ethyl]-1H-quinazolin-2,4-dione] yielded a melting point of 274 to 276 °C.
Compound `COC[C@@H]1CCCN1Cc1ccc(CCn2cnc3cc(-c4ccc(Cl)cc4)ccc3c2=O)cc1` [Example 1.13, 7-(4-chloro-phenyl)-3-{2-[4-((S)-2-methoxymethyl-pyrrolidin-1-ylmethyl)-phenyl]-ethyl}-3H-quinazolin-4-one] returned a melting point of 133 to 135 °C.
On the same count and under the same terms, the result for `CN(C)Cc1ccc(CCn2cnc3cc(-c4ccc(Cl)cc4)ccc3c2=O)cc1` [Example 1.14, 7-(4-chloro-phenyl)-3-[2-(4-dimethylaminomethyl-phenyl)-ethyl]-3H-quinazolin-4-one] reads 183 °C; that for `O=c1c2ccc(-c3ccc(Cl)cc3)cc2ncn1CCc1ccc(CN2CCCCC2)cc1` [Example 1.15, 7-(4-chloro-phenyl)-3-[2-(4-piperidin-1-ylmethyl-phenyl)-ethyl]-3H-quinazolin-4-one], 169 to 170 °C.
On the same count and under the same terms, the result for `O=c1c2ccc(-c3ccc(Cl)cc3)cc2ncn1CCc1ccc(CN2CCOCC2)cc1` [Example 1.16, 7-(4-chloro-phenyl)-3-[2-(4-morpholin-4-ylmethyl-phenyl)-ethyl]-3H-quinazolin-4-one] reads 169 to 170 °C.
Same read-out and setting: with `CN1CCN(c2ccc(CCn3cnc4cc(-c5ccc(Cl)cc5)ccc4c3=O)cn2)CC1` [Example 1.17, 7-(4-chloro-phenyl)-3-{2-[6-(4-methyl-piperazin-1-yl)-pyridin-3-yl]-ethyl}-3H-quinazolin-4-one] the figure was 263 to 264 °C; with `O=c1c2ccc(-c3ccc(Cl)cc3)cc2nnn1CCc1ccc(CN2CCCC2)cc1` [Example 1.18, 7-(4-chloro-phenyl)-3-[2-(4-pyrrolidin-1-ylmethyl-phenyl)-ethyl]-3H-benzo[d][1,2,3]triazin-4-one], 151 to 152 °C; with `O=c1c2ccc(-c3ccc(Cl)cc3)cc2nnn1Cc1ccc(CN2CCCC2)cc1` [Example 1.19, 7-(4-chloro-phenyl)-3-(4-pyrrolidin-1-ylmethyl-benzyl)-3H-benzo[d][1,2,3]triazin-4-one], 147 to 148 °C.
In turn, `O=c1c2ccc(-c3ccc(Cl)cc3)cc2ncn1CCc1ccc(CN2CCC(c3ccccc3)CC2)cc1` [Example 1.21, 7-(4-chloro-phenyl)-3-{2-[4-(4-phenyl-piperidin-1-ylmethyl)-phenyl]-ethyl}-3H-quinazolin-4-one] came in with a melting point of 178 to 179 °C.
On the same count and under the same terms, the result for `O=c1c2ccc(-c3ccc(Cl)cc3)cc2ncn1CCc1ccc(CN2CCN(c3ccccc3)CC2)cc1` [Example 1.22, 7-(4-chloro-phenyl)-3-{2-[4-(4-phenyl-piperazin-1-ylmethyl)-phenyl]-ethyl}-3H-quinazolin-4-one] reads 199 to 200 °C.
In turn, `O=c1c2ccc(-c3ccc(Cl)cc3)cc2ncn1CCc1ccc(CN2CC=C(c3ccccc3)CC2)cc1` [Example 1.24, 7-(4-chloro-phenyl)-3-{2-[4-(4-phenyl-3.6-dihydro-2H-piperidin-1-ylmethyl)-phenyl]-ethyl}-3H-quinazolin-4-one] had a melting point of 166 to 167 °C.
Consider `O=c1c2ccc(-c3ccc(Cl)cc3)cc2ncn1CCc1ccc(CN2CCC3(CCCCC3)CC2)cc1` [Example 1.25, 7-(4-chloro-phenyl)-3-{2-[4-(3-Aza-spiro[5.5]undec-3-ylmethyl)-phenyl]-ethyl}-3H-quinazolin-4-one], for which the melting point fell in the range of 184 to 185 °C.
On the same count and under the same terms, the result for `O=c1c2ccc(-c3ccc(Cl)cc3)cc2ncn1CCc1ccc(CN2CCC(Oc3ccccn3)CC2)cc1` [Example 1.26, 7-(4-chloro-phenyl)-3-(2-{4-[4-(pyridin-2-yloxy)-piperidin-1-ylmethyl]-phenyl}-ethyl)-3H-quinazolin-4-one] reads 154 to 158 °C.
`O=c1c2ccc(-c3ccc(Cl)cc3)cc2ncn1CCc1ccc(CN2CCC(Nc3ccccn3)CC2)cc1` [Example 1.27, 7-(4-chloro-phenyl)-3-(2-{4-[4-(pyridin-2-ylamino)-piperidin-1-ylmethyl]-phenyl}-ethyl)-3H-quinazolin-4-one]: the melting point is 164 to 166 °C.
On to `O=c1c2ccc(-c3ccc(Cl)cc3)cc2nnn1CCc1ccc(CN2CCC(c3ccccc3)CC2)cc1` [Example 1.28, 7-(4-chloro-phenyl)-3-{2-[4-(4-phenyl-piperidin-1-ylmethyl)-phenyl]-ethyl}-3H-benzo[d][1,2,3]triazin-4-one], for which the melting point fell in the range of 183 to 184 °C.
For `O=c1c2ccc(-c3ccc(Cl)cc3)cc2nnn1CCc1ccc(CN2CCC3(CCCCC3)CC2)cc1` [Example 1.30, 7-(4-chloro-phenyl)-3-{2-[4-(3-aza-spiro[5.5]undec-3-ylmethyl)-phenyl]-ethyl}-3H-benzo[d][1,2,3]triazin-4-one], the melting point is 165 to 166 °C.
`O=c1c2ccc(-c3ccc(Cl)cc3)cc2ccn1CCc1ccc(CN2CCCC2)cc1` [Example 1.31, 6-(4-chloro-phenyl)-2-[2-(4-pyrrolidin-1-ylmethyl-phenyl)-ethyl]-2H-isoquinolin-1-one] registered a melting point of 136 to 137 °C.
The same measure, in the same setting: with `CN1CCN(c2ccc(CCNC(=O)c3ccc(-c4ccc(Cl)cc4)cc3)cn2)CC1` [Example 2.50, 4′-chloro-biphenyl-4-carboxylic acid-{2-[6-(4-methyl-piperazin-1-yl)-pyridin-3-yl]-ethyl}-amide] the figure was 211 to 213 °C; with `CN1CCN(C(=O)c2ccc(CCNC(=O)c3ccc(-c4ccc(Cl)cc4)cc3)cc2)CC1` [Example 2.51, 4′-chloro-biphenyl-4-carboxylic acid-{2-[4-(4-methyl-piperazine-1-carbonyl)-phenyl]-ethyl}-amide], 217 to 218 °C.

For a further data set, the target named is T1, hMCH-1R (Homo sapiens, UniProt Q99705).
T1 construct: expressed in transfected cells; host or cells: CHO/Galpha16 cells, stably transfected; membrane preparation
T1 sequence (Q99705 whole entry): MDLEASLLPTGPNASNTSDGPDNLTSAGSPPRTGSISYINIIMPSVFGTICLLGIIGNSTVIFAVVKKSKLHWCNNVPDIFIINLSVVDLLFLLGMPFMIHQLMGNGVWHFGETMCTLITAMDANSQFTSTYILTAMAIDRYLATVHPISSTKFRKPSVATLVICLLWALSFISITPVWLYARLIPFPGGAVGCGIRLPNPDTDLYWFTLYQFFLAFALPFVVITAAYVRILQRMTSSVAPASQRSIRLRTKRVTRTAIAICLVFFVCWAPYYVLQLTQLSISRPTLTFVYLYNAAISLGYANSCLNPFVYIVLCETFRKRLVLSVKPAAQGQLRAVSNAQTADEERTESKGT
In words: MCH-1 receptor binding test (125I-MCH binding to membranes of hMCH-1R transfected CHO/Galpha16 cells). Particulars: 100 pM 125I-MCH, membranes of CHO/Galpha16 cells with hMCH-1R. The procedure:
Membranes from CHO/Galpha16 cells stably transfected with human hMCH-1R are resuspended using a syringe (needle 0.6×25 mm) and diluted in test buffer (50 mM HEPES, 10 mM MgCl2, 2 mM EGTA, pH 7.00; 0.1% bovine serum albumin (protease-free), 0.021% bacitracin, 1 μg/ml aprotinin, 1 μg/ml leupeptin and 1 μM phosphoramidone) to a concentration of 5 to 15 μg/ml. […] After the incubation the reaction is filtered using a cell harvester through 0.5% PEI treated glass fibre filters (GF/B, Unifilter Packard). The membrane-bound radioactivity retained on the filter is then determined after the addition of scintillator substance (Packard Microscint 20) in a measuring device (TopCount of Packard).
The non-specific binding is defined as bound radioactivity in the presence of 1 micromolar MCH during the incubation period.
The analysis of the concentration binding curve is carried out on the assumption of one receptor binding site.
In the case of `CN(C)Cc1ccc(CCn2cnc3cc(-c4ccc(Cl)cc4)ccc3c2=O)cc1` [Example 1.14, 7-(4-chloro-phenyl)-3-[2-(4-dimethylaminomethyl-phenyl)-ethyl]-3H-quinazolin-4-one], the IC50 is 2.1 nM.
Take `CCN(CC)Cc1ccc(CCNC(=O)c2ccc(-c3ccc(OC)cc3)cc2)cc1` [Example 2.4, 4′-methoxy-biphenyl-4-carboxylic acid-[2-(4-diethylaminomethyl-phenyl)-ethyl]-amide]: the IC50 was 3.5 nM.
For `Cc1ccc(C2CCN(C(=O)NCCc3ccc(CN4CCCC4)cc3)CC2)cc1` [Example 2.12, 4-methylphenyl-piperidine-1-carboxylic acid-[2-(4-pyrrolidin-1-ylmethyl-phenyl)-ethyl]-amide], the IC50 turned out to be 30.5 nM.

One may read the melting point as the temperature, or range, at which the solid turns liquid. The IC50 is the concentration that gives 50% inhibition.
